US8840927B2, “Method of making anti-microbial polymeric surfaces” (Covalon Technologies Inc., priority 2001, dated 2014)
In brackets after ≈: the same amount, converted by molar mass.

Assay: Aqueous solubility of photo-initiator
Type: physicochemical
Experimental: Pre-weighed silicone disks (approximately 0.7 cm in diameter, 0.2 cm in thickness) or cylindrical sections (approximately 0.5 cm in diameter, 1 cm in length) were incubated in a methanol solution of photo-initiator (BPB; or p-benzoyl benzoic acid, BBA) for 1 hour followed by air drying at about 40° C. for 2 hours. Samples were then suspended in vials containing 3 mL of aqueous monomer solution. When required, monomer solutions were saturated with BPB. The aqueous solubility of BPB was 4 μg/mL. All solutions were filtered through 0.22 μm pore filters prior to being flushed with nitrogen for 15 min. Vials were sealed with rubber septa and placed 2.5 cm beneath a pair of UVA bulbs (15 W ea.). Radiation intensity at the sample site was 3.8 mW/cm2 as determined by UV actinometry (16). After completion of the graft polymerization reaction, samples were briefly washed under running water with occasional scrubbing to remove any signs of adsorbed homopolymer. The remaining non-grafted material was removed by overnight incubation in 50% ethanol followed by a 4 hour incubation in water. Samples were dried in a 60° C. oven for 16 hours before their weights were determined using a microbalance. Quadruplicate samples of each treatment were analysed in all experiments.

CC(C)(C)OOC(=O)c1ccc(C(=O)c2ccccc2)cc1 [BPB, p-benzoyl tert-butylperbenzoate]
aqueous solubility: 4 µg/mL (≈ 13.4 µM)
